Consider 22 compounds from US8853203B2, “Diazepinone derivatives” (Novartis AG, priority 2012, dated 2014).

One test concerns the target human mGluR5a receptors (Homo sapiens (Human), UniProt P41594). Description: inhibition of glutamate-induced elevation of intracellular calcium in L(tk-) cells expressing human mGluR5a. The format is cell-based. Particulars: for IC50: glutamate-induced intracellular calcium elevation, L(tk-) cells expressing human mGluR5a, read-out: mGluR5 IC50. The gist of the method:
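Compounds tested for inhibition of the glutamate-induced rise in intracellular calcium concentration in L(tk-) cells stably expressing human mGluR5a.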
On the technique in general: Calcium flux is commonly read through the fluorescence of an indicator in the cells.

For a further test, the target named is human mGluR1 (Homo sapiens (Human), UniProt Q13255). Briefly: mGluR1 antagonism, L-glutamate induced intracellular calcium increase (FLIPR) in CHO cells stably expressing human mGluR1. The format is cell-based. Particulars: for IC50: L-glutamate induced intracellular calcium, CHO cells expressing human mGluR1, FLIPR.

Bounds are passed on as bounds.

Sequence of human mGluR1 (Q13255 19-1194): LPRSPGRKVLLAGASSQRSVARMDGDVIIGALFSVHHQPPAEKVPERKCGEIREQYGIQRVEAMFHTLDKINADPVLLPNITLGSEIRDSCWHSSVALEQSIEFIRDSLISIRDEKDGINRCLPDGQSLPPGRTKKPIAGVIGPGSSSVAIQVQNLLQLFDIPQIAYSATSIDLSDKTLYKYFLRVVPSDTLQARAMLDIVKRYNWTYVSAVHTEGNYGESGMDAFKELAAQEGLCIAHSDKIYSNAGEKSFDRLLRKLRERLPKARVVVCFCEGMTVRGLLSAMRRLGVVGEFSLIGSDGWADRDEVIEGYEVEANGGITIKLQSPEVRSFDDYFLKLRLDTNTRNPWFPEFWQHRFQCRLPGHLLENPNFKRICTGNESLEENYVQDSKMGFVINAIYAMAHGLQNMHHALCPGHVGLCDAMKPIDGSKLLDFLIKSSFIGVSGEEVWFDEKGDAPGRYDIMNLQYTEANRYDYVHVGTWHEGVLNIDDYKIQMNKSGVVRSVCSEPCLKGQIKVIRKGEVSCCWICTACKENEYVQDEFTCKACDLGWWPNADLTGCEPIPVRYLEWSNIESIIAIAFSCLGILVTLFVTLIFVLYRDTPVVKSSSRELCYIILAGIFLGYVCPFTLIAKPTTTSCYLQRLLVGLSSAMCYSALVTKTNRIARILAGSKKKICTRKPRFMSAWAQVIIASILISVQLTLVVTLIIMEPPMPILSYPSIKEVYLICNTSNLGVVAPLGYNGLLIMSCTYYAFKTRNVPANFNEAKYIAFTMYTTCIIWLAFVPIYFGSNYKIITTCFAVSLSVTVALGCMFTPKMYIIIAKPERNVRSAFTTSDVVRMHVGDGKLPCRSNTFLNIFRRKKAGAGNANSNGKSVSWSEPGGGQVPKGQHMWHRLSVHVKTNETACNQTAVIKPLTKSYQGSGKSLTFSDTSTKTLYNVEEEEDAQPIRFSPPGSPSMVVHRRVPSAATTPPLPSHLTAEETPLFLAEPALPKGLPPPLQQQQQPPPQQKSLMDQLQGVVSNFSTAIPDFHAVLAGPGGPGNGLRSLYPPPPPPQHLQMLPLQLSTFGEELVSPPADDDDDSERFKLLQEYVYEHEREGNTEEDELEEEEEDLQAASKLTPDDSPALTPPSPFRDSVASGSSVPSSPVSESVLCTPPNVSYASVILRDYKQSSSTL
Sequence of human mGluR5a receptors (P41594 other isoform, or with tags, fused parts or gaps): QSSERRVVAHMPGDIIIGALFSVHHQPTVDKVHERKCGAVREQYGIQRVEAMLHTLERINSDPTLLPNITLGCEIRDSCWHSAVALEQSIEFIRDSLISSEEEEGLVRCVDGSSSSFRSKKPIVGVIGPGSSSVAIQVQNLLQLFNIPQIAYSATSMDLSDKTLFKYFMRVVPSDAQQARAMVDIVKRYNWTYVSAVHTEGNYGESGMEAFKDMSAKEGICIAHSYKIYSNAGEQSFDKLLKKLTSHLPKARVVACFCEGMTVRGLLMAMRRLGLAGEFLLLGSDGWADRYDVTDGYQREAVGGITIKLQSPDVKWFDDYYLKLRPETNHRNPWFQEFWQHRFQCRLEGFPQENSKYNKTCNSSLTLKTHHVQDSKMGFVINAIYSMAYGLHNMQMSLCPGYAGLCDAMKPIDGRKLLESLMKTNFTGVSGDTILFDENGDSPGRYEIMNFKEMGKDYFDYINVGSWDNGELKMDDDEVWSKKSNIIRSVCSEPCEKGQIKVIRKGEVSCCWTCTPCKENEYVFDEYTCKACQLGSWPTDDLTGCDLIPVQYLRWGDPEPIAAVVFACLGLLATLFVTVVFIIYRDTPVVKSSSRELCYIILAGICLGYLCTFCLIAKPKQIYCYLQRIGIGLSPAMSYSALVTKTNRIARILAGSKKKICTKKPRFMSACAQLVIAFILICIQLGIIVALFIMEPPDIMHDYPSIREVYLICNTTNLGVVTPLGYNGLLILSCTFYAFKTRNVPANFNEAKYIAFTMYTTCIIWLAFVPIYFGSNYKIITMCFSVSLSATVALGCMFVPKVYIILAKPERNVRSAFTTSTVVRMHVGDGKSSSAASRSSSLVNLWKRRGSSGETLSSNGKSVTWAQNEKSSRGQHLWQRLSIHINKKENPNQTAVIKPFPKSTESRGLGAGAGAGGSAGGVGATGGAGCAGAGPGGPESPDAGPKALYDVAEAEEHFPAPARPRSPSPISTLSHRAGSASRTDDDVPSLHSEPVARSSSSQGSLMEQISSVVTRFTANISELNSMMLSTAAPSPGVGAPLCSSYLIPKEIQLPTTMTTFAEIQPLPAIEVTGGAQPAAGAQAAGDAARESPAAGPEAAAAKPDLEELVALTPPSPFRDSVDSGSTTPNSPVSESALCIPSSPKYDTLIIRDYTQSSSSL

By IC50 is commonly meant the midpoint of a concentration-inhibition curve. For the compound `Cc1cn(C2=NCC(=O)N3CCc4c(Cl)cccc4C3=C2)cn1` [Example 62, 9-chloro-2-(4-methyl-1H-imidazol-1-yl)-7,8-dihydro-[1,4]diazepino[7,1-a]isoquinolin-5(4H)-one], the IC50 at human mGluR5a receptors came out at 595 nM; at human mGluR1, 1600 nM.

`O=C1CN=C(n2cnc(C(O)C3CC3)c2)C=C2c3cccc(C4CC4)c3CCN12` (centres unmarked) [Example 130, 9-cyclopropyl-2-(4-(cyclopropyl(hydroxy)methyl)-1H-imidazol-1-yl)-7,8-dihydro-[1,4]diazepino[7,1-a]isoquinolin-5(4H)-one]: the IC50 stood at 27 nM at human mGluR5a receptors and 3310 nM at human mGluR1.

As to `O=C1CN=C(n2cnc(C3CC3)n2)C=C2c3cccc(-c4cccc(F)n4)c3CCN12` [Example 134, 2-(3-cyclopropyl-1H-1,2,4-triazol-1-yl)-9-(6-fluoropyridin-2-yl)-7,8-dihydro-[1,4]diazepino[7,1-a]isoquinolin-5(4H)-one], the IC50 at human mGluR5a receptors was 198 nM; on human mGluR1, greater than 10000 nM.

Regarding `CC(C)(C)c1cn(C2=NCC(=O)N3CCc4c(cccc4C4CCCO4)C3=C2)cn1` (centres unmarked) [Example 112, 2-(4-(tert-butyl)-1H-imidazol-1-yl)-9-(tetrahydrofuran-2-yl)-7,8-dihydro-[1,4]diazepino[7,1-a]isoquinolin-5(4H)-one], the IC50 was 515 nM on human mGluR5a receptors and greater than 10000 nM on human mGluR1.

Take `COc1cccc(C2=NCC(=O)N3CCc4c(Br)cccc4C3=C2)c1` [Example 20, 9-bromo-2-(3-methoxyphenyl)-7,8-dihydro-[1,4]diazepino[7,1-a]isoquinolin-5(4H)-one]: the IC50 on human mGluR5a receptors is 1200 nM; on human mGluR1, 2800 nM.

Consider `O=C1CN=C(n2cnc(C(F)F)c2)C=C2c3cccc(C4CC4)c3CCN12` [Example 99l, 9-cyclopropyl-2-(4-(difluoromethyl)-1H-imidazol-1-yl)-7,8-dihydro-[1,4]diazepino[7,1-a]isoquinolin-5(4H)-one], for which the IC50 is 2 nM on human mGluR5a receptors and 702 nM on human mGluR1.

For the compound `Cc1cn(C2=NCC(=O)N3CCc4c(cccc4-c4cccnc4)C3=C2)cn1` [Example 79, 2-(4-methyl-1H-imidazol-1-yl)-9-(pyridin-3-yl)-7,8-dihydro-[1,4]diazepino[7,1-a]isoquinolin-5(4H)-one], the IC50 at human mGluR5a receptors was 130 nM; at human mGluR1 it was greater than 10000 nM.

`O=C1CN=C(n2cnc(C3CC3)c2)C=C2c3cccc(-c4cc[nH]n4)c3CCN12` [Example 99e, 2-(4-cyclopropyl-1H-imidazol-1-yl)-9-(1H-pyrazol-3-yl)-7,8-dihydro-[1,4]diazepino[7,1-a]isoquinolin-5(4H)-one]: the IC50 at human mGluR5a receptors came to 127 nM; on human mGluR1, 8260 nM.

As for `O=C1CN=C(n2cnc(C3CC3)n2)C=C2c3cccc(-c4ccc(F)cn4)c3CCN12` [Example 133, 2-(3-cyclopropyl-1H-1,2,4-triazol-1-yl)-9-(5-fluoropyridin-2-yl)-7,8-dihydro-[1,4]diazepino[7,1-a]isoquinolin-5(4H)-one], the results for the IC50 at human mGluR5a receptors and at human mGluR1 were 215 nM and greater than 10000 nM, respectively.

Turning to `COc1cc(C2=NCC(=O)N3CCc4c(I)cccc4C3=C2)ccn1` [Example 33, 9-iodo-2-(2-methoxypyridin-4-yl)-7,8-dihydro-[1,4]diazepino[7,1-a]isoquinolin-5(4H)-one], the IC50 at human mGluR5a receptors is 13 nM; on human mGluR1, 1400 nM.

For `Cc1ncn(C2=NCC(=O)N3CCc4c(cccc4C4CCC4)C3=C2)n1` [Example 92, 9-cyclobutyl-2-(3-methyl-1H-1,2,4-triazol-1-yl)-7,8-dihydro-[1,4]diazepino[7,1-a]isoquinolin-5(4H)-one], the IC50 at human mGluR5a receptors was less than 1 nM; at human mGluR1, 636 nM.

What is called inhibition is the relative decrease from the control value, in per cent. `O=C1CN=C(n2cnc(C3CC3)c2)C=C2c3cccc(-c4ccc(O)nc4)c3CCN12` [Example 99c, 2-(4-cyclopropyl-1H-imidazol-1-yl)-9-(6-hydroxypyridin-3-yl)-7,8-dihydro-[1,4]diazepino[7,1-a]isoquinolin-5(4H)-one]: the inhibition at 2 µM at human mGluR5a receptors (LTK, read-out: mGluR5 % inhibition at 2 μM) was 31%. The IC50 at human mGluR1 is greater than 10000 nM.

As for `COc1cccc2c1CCN1C(=O)CN=C(c3cccc(C(F)(F)F)c3)C=C21` [Example 16, 9-methoxy-2-(3-(trifluoromethyl)phenyl)-7,8-dihydro-[1,4]diazepino[7,1-a]isoquinolin-5(4H)-one], the figures for the IC50 on human mGluR5a receptors and at human mGluR1 were 2200 nM and 3500 nM, respectively.

`O=C1CN=C(n2cnc(C(F)(F)F)c2)C=C2c3cccc(I)c3CCN12` [Example 63, 9-iodo-2-(4-(trifluoromethyl)-1H-imidazol-1-yl)-7,8-dihydro-[1,4]diazepino[7,1-a]isoquinolin-5(4H)-one]: the results for the IC50 on human mGluR5a receptors and at human mGluR1 were 535 nM and 3200 nM, respectively.

As to `Cc1cn(C2=NCC(=O)N3CCc4c(I)cccc4C3=C2)c(C)n1` [Example 67, 2-(2,4-dimethyl-1H-imidazol-1-yl)-9-iodo-7,8-dihydro-[1,4]diazepino[7,1-a]isoquinolin-5(4H)-one], the IC50 amounted to 715 nM at human mGluR5a receptors and 1400 nM at human mGluR1.

`COc1cccc(C2=NCC(=O)N3CCc4c(cccc4C(C)(C)O)C3=C2)c1` [Example 26, 9-(2-hydroxypropan-2-yl)-2-(3-methoxyphenyl)-7,8-dihydro-[1,4]diazepino[7,1-a]isoquinolin-5(4H)-one]: the results for the IC50 on human mGluR5a receptors and at human mGluR1 were 235 nM and greater than 10000 nM, respectively.

On to `CCc1cn(C2=NCC(=O)N3CCc4c(cccc4C4(F)CCC4)C3=C2)cn1` [Example 113, 2-(4-ethyl-1H-imidazol-1-yl)-9-(1-fluorocyclobutyl)-7,8-dihydro-[1,4]diazepino[7,1-a]isoquinolin-5(4H)-one], for which the IC50 at human mGluR5a receptors amounted to 120 nM; at human mGluR1, 2300 nM.

For the compound `COc1ccc(C)c(C2=NCC(=O)N3CCc4c(OC)cccc4C3=C2)c1` [Example 18, 9-methoxy-2-(5-methoxy-2-methylphenyl)-7,8-dihydro-[1,4]diazepino[7,1-a]isoquinolin-5(4H)-one], the IC50 was 4100 nM on human mGluR5a receptors and greater than 10000 nM at human mGluR1.

With `Cc1coc(-c2cccc3c2CCN2C(=O)CN=C(n4cnc(C5CC5)c4)C=C32)n1` [Example 87, 2-(4-cyclopropyl-1H-imidazol-1-yl)-9-(4-methyloxazol-2-yl)-7,8-dihydro-[1,4]diazepino[7,1-a]isoquinolin-5(4H)-one], at human mGluR5a receptors, the 50% inhibitory concentration (IC50) amounted to 148 nM. For the same compound, on human mGluR1 (CHO), the inhibition at 10 µM stood at 56%.

For `CC(O)c1cn(C2=NCC(=O)N3CCc4c(cccc4C4CC4)C3=C2)cn1` (centres unmarked) [Example 129, 9-cyclopropyl-2-(4-(1-hydroxyethyl)-1H-imidazol-1-yl)-7,8-dihydro-[1,4]diazepino[7,1-a]isoquinolin-5(4H)-one], the IC50 was determined as 2 nM on human mGluR5a receptors and 1500 nM on human mGluR1.

As for `O=C1CN=C(n2cnc(C3CC3)c2)C=C2c3ccnc(-c4ccc(F)nc4)c3CCN12` [Example 110, 2-(4-cyclopropyl-1H-imidazol-1-yl)-9-(6-fluoropyridin-3-yl)-7,8-dihydro-[1,4]diazepino[7,1-a][2,6]naphthyridin-5(4H)-one], the IC50 on human mGluR5a receptors is 270 nM; at human mGluR1, greater than 10000 nM.

For the compound `COCc1cn(C2=NCC(=O)N3CCc4c(cccc4-c4nccs4)C3=C2)cn1` [Example 71, 2-(4-(methoxymethyl)-1H-imidazol-1-yl)-9-(thiazol-2-yl)-7,8-dihydro-[1,4]diazepino[7,1-a]isoquinolin-5(4H)-one], the IC50 turned out to be 27 nM on human mGluR5a receptors and 6400 nM on human mGluR1.
